Assay results as given in patent US20130029991A1, “New Phenylsulfamoyl Benzamide Derivatives as Bradykinin Antagonists” (priority 2006, published 2013).
Structures can show the parent of a compound that is named as a salt.

Molecular target: T1, human recombinant bradykinin B1 receptor (Homo sapiens, UniProt P46663)
T1 construct: host or cells: CHO cells
T1 sequence (P46663 1-353): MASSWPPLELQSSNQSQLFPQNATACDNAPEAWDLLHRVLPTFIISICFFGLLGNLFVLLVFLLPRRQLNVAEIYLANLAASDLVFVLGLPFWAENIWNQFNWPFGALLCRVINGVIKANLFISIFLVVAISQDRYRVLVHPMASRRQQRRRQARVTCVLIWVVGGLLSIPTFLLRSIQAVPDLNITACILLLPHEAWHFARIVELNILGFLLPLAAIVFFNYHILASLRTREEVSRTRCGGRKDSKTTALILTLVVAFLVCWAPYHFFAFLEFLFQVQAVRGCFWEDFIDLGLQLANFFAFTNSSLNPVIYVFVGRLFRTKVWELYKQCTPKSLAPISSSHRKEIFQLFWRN
Assay: Human recombinant bradykinin B1 receptor binding
Conditions: CHO cell membranes, [3H]-[Des-Arg10] Kallidin radioligand; read-out: B1 binding
Description: 1. Human Recombinant Bradykinin B1 Receptor Binding
Binding assays were carried out on human recombinant bradykinin) receptors (expressed in CHO cells) according to the Euroscreen Technical Data Sheet (Cat.No.:ES-091). 20 μg protein/tube was incubated with [3,4-prolyl-3,4-^3H(N)]-[Des-Arg^10] Kallidin as radioligand. Non specific binding was determined in the presence of 10 μM Lys-des-Arg^9-Bradykinin. The final incubation volume was 250 μl. Samples were incubated for 15 min. at 25° C. then were rapidly vacuum filtered through GF/B filters presoaked for at least 1 h in 0.5% PEI. Radioactivity was determined by liquid scintillation spectroscopy.

Row | SMILES | Ki [nM]
1 | N#CCc1ccc(NC(=O)CNC(=O)c2ccc(S(=O)(=O)Nc3ccccc3Oc3ccccc3)cc2)cc1 [Example 73, N-[(4-Cyanomethyl-phenylcarbamoyl)-methyl]-4-(2-phenoxy-phenylsulfamoyl)-benzamide] | < 20
2 | CN(C)CC(C)(C)CNC(=O)CNC(=O)c1ccc(S(=O)(=O)Nc2ccccc2Oc2ccc(Cl)cc2Cl)cc1 [Example 35, 4-[2-(2,4-Dichloro-phenoxy)-phenylsulfamoyl]-N-[(3-dimethylamino-2,2-dimethyl-propylcarbamoyl)-methyl]-benzamide] | < 20
3 | O=C(CNC(=O)c1ccc(S(=O)(=O)Nc2ccccc2Nc2ccccc2)cc1)NCC1CCNCC1 [Example 103, 4-(2-Phenylamino-phenylsulfamoyl)-N-{[(piperidin-4-ylmethyl)-carbamoyl]-methyl}-benzamide hydrochloride] | < 20
4 | CN(CCc1ccncc1)C(=O)CNC(=O)c1ccc(S(=O)(=O)Nc2ccccc2Oc2ccc(Cl)cc2Cl)cc1 [Example 43, 4-[2-(2,4-Dichloro-phenoxy)-phenylsulfamoyl]-N-{[methyl-(2-pyridin-4-yl-ethyl)-carbamoyl]-methyl}-benzamide] | < 20
5 | O=C(CNC(=O)c1ccc(S(=O)(=O)Nc2ccccc2Oc2ccc(Cl)cc2Cl)cc1)NCCCCC1CCNCC1 [Example 59, 4-[2-(2,4-Dichloro-phenoxy)-phenylsulfamoyl]-N-[(4-piperidin-4-yl-butylcarbamoyl)-methyl]-benzamide hydrochloride] | < 20
